Data from patent publication US10526370B2, “Pentapeptide associated with integrin receptor alpha vbeta3” (priority 2015, dated 2020).
Entries after “also recorded” stand apart in the source; their conditions may differ. Read-outs that look alike come from different tables or passages of the source. Where a SMILES comes first, the peptide text is derived from it. [ ]: non-standard residue; d: D form.

Legend:
L02 cells = experiment: In vitro cellular uptake assay (laser confocal microscopy); format: cell-based; conditions: L02, 500 μmol/L, 2-hour incubation at 37° C., FIG. 4
Method: (§1) The cultured human glioma cells U87MG, human breast cancer cells MDA-MB-231, human breast cancer cells MCF-7 and normal liver cells L02 were transferred to a confocal dish respectively, and incubated overnight. Then, the rhodamine B-labeled pentapeptide was added at the same concentration (500 μmol/L). The cyclic RGD labeled with the rhodamine B is added and used as a positive control. After 2-hour incubation at 37° C., the cells were stained with 12 μg/mL of the nuclear staining reagent Hochest 33342. Finally, the intracellular uptake of the probe was observed under a laser confocal microscope.

U87MG cells [1] = experiment: In vitro cell affinity test (flow cytometry); format: cell-based, human; conditions: rhodamine-labeled peptides, FIG. 1
Method: The human malignant glioma cells (U87MG) and the human breast cancer cells (MDA-MB-231) were cultured in a 6-well plate for 12 hours. Then, 100 μL of a polypeptide fluorescent probe labeled with rhodamine B (final concentration 250 μM) was added and co-incubated for 2 hours with gently shaking on a shaker at 37° C. Next, the cells were digested with 0.05% trypsin and washed off from the 6-wells plate. The cells were re-suspended in 1 mL PBS buffer (pH 7.2), and centrifuged (3500 r, 5 min). The supernatant was aspirated and discarded. The pellet was washed twice with a PBS buffer (pH7.2). After washing, the cells were re-suspended in a PBS buffer (pH 7.2). The mean fluorescence intensity (MFI) of the cells was quantified by using a flow cytometer. The higher the fluorescence intensity is, the greater the affinity for the cells will be. When the probe has a high affinity for the receptor on the cells, the cells have a high value of MFI measured by the flow cytometer. […] The dye used as a blank has a MFI of 25.

MCF-7 cells = experiment: In vitro cellular uptake assay (laser confocal microscopy); format: cell-based, human; conditions: MCF-7, 500 μmol/L, 2-hour incubation at 37° C., FIG. 4
Method: as §1

U87MG cells [2] = experiment: as above; format: cell-based, human; conditions: 500 μmol/L, 2-hour incubation at 37° C., FIG. 3
Method: as §1

MDA-MB-231 cells = experiment: as above; format: cell-based, human; conditions: MDA-MB-231, 500 μmol/L, 2-hour incubation at 37° C., FIG. 3
Method: as §1

[3] = In vitro cellular cytotoxicity assay; format: cell-based; conditions: human
Method: When the U87MG cells, MCF-7 cells and normal liver cells L02 were grown to 90% confluent or higher, the cells were digested with 0.25% trypsin and then suspended in a complete growth medium to obtain a single cell suspension. The cells were plated at a density of 3000 cells/well in a 96-well plate, and cultured at 37° C. in an incubator containing 5% CO2. After 24-hour incubation, the medium was changed to a low-serum culture medium supplemented with 1% FBS. Then, the pentapeptide was added at different concentration gradients, to achieve a final concentration of 2.5, 5, 10, 20, 40, 80, 100 and 200 μM.

CSCC[C@H](NC(=O)[C@H](CC(N)=O)NC(=O)[C@@H](CCCNC(=N)N)NC(=O)[C@H](Cc1c[nH]c2ccccc12)NC(=O)[C@@H](N)CCCNC(=N)N)C(N)=O [pentapeptide, Arg-Trp-Arg-Asn-Met] (H-RW[dR]NM-NH2; N-terminus and C-terminus assumed)
intracellular uptake of the probe (fluorescence intensity) (L02 cells): poor affinity and low | affinity for U87 cells (comparison in words) (U87MG cells [1]): greatest affinity | intracellular uptake of the probe (fluorescence intensity) (MCF-7 cells): poor affinity and low | intracellular uptake of the probe (fluorescence intensity) (U87MG cells [2]): strong ability to uptake; also recorded: strong fluorescence intensity | intracellular uptake of the probe (fluorescence intensity) (MDA-MB-231 cells): strong ability to uptake; also recorded: strong fluorescence intensity | viability ([3]; MCF-7 cells, MCF-7, pentapeptide 2.5-200 μM, FIG. 6, read-out: cell survival rate): ≥ 80% | viability ([3]; U87MG cells, pentapeptide 2.5-200 μM, FIG. 6, read-out: cell survival rate): ≥ 80% | viability ([3]; normal liver cells L02, L02, pentapeptide 2.5-200 μM, FIG. 6, read-out: cell survival rate): ≥ 80%
